Data: ChEMBL document CHEMBL1140642, “Human serum albumin binding assay based on displacement of a non selective fluorescent inhibitor” (Bioorg Med Chem Lett, 2007)

Columns and labels:
Albumin [1] = biological target: T1, Albumin (Homo sapiens, UniProt P02768); assay: Displacement of [C13]-methyl oleic acid from warfarin site of human serum albumin by NMR
Albumin [2] = biological target: T1, Albumin; assay: Displacement of [C13]-methyl oleic acid from ibuprofen site of human serum albumin by NMR

T1 sequence (P02768 whole entry): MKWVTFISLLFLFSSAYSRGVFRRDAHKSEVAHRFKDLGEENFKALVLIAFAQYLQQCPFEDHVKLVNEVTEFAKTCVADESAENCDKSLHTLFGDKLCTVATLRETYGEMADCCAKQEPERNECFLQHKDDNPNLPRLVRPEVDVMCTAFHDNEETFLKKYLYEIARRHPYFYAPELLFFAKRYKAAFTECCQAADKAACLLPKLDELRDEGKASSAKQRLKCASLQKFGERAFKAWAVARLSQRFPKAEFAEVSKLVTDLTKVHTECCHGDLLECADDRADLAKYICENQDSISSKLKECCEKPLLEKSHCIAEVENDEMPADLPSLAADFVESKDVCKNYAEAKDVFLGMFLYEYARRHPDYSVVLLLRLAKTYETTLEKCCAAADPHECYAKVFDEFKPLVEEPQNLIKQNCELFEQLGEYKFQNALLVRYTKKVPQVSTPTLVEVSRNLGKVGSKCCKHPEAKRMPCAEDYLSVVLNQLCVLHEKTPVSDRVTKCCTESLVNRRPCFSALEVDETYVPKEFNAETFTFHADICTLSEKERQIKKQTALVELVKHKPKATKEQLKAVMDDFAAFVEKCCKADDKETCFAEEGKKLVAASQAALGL

Activity (Albumin [1]): Active
Activity (Albumin [2]): Active
Structure (SMILES): Cn1c(/C=C/c2ccc(C#N)cc2C(=O)O)cc2ccccc21
